Structures are written as SMILES. Converted amounts (≈) assume the structure as drawn.

Data set [1] can be described thus: Kinetic solubility analysis (CLND: total chemiluminescent nitrogen determination). The note with it: 1.0% DMSO, 24-hour incubation at ambient temperature, maximum theoretical concentration 100 μM; for pH 2 solubility: 0.1N HCl; for pH 7 solubility: 1×PBS buffer (pH 7.4).
Data set [2] is described as follows: Solubility in simulated intestinal fluids (FaSSIF / FeSSIF). The note with it: 25 °C, thermodynamic from solid.
[3] abbreviates: fasted state simulated intestinal fluid (FaSSIF), fassif.
[4] abbreviates: fed state simulated intestinal fluid (FeSSIF), fessif.

On to `CN1CCN(C(=O)N(c2nn(CC(F)(F)F)c3c(-c4ccc(C#CC(C)(C)S(C)(=O)=O)nc4[C@H](Cc4cc(F)cc(F)c4)NC(=O)Cn4nc(C(F)(F)F)c5c4C(F)(F)[C@@H]4C[C@H]54)ccc(Cl)c23)S(C)(=O)=O)CC1` [Compound 1, N-(4-chloro-7-(2-((S)-1-(2-((3bS,4aR)-5,5-difluoro-3-(trifluoromethyl)-3b,4,4a,5-tetrahydro-1H-cyclopropa[3,4]cyclopenta[1,2-c]pyrazol-1-yl)acetamido)-2-(3,5-difluorophenyl)ethyl)-6-(3-methyl-3-(methylsulfonyl)but-1-yn-1-yl)pyridin-3-yl)-1-(2,2,2-trifluoroethyl)-1H-indazol-3-yl)-4-methyl-N-(methylsulfonyl)piperazine-1-carboxamide], for which, in data set [1], the “pH 2 solubility” value turned out to be 39 μM and the “pH 7 solubility” value is reported as 1 μM.

Turning to `CC(C)(C#Cc1ccc(-c2ccc(Cl)c3c(N(C(=O)N4CCC(N5CCCCC5)CC4)S(C)(=O)=O)nn(CC(F)(F)F)c23)c([C@H](Cc2cc(F)cc(F)c2)NC(=O)Cn2nc(C(F)(F)F)c3c2C(F)(F)[C@@H]2C[C@H]32)n1)S(C)(=O)=O` [Compound 2, N-(4-chloro-7-(2-((S)-1-(2-((3bS,4aR)-5,5-difluoro-3-(trifluoromethyl)-3b,4,4a,5-tetrahydro-1H-cyclopropa[3,4]cyclopenta[1,2-c]pyrazol-1-yl)acetamido)-2-(3,5-difluorophenyl)ethyl)-6-(3-methyl-3-(methylsulfonyl)but-1-yn-1-yl)pyridin-3-yl)-1-(2,2,2-trifluoroethyl)-1H-indazol-3-yl)-N-(methylsulfonyl)-[1,4′-bipiperidine]-1′-carboxamide], in data set [1], the “pH 2 solubility” value was determined as 17 μM and the “pH 7 solubility” value is 1 μM.

`CC(C)(C#Cc1ccc(-c2ccc(Cl)c3c(N(C(=O)C4CNC4)S(C)(=O)=O)nn(CC(F)(F)F)c23)c([C@H](Cc2cc(F)cc(F)c2)NC(=O)Cn2nc(C(F)(F)F)c3c2C(F)(F)[C@@H]2C[C@H]32)n1)S(C)(=O)=O` [Compound 5, N-(4-chloro-7-(2-((S)-1-(2-((3bS,4aR)-5,5-difluoro-3-(trifluoromethyl)-3b,4,4a,5-tetrahydro-1H-cyclopropa[3,4]cyclopenta[1,2-c]pyrazol-1-yl)acetamido)-2-(3,5-difluorophenyl)ethyl)-6-(3-methyl-3-(methylsulfonyl)but-1-yn-1-yl)pyridin-3-yl)-1-(2,2,2-trifluoroethyl)-1H-indazol-3-yl)-N-(methylsulfonyl)azetidine-3-carboxamide]: in data set [1], the “pH 2 solubility” value was 34 μM and the “pH 7 solubility” value was determined as 1 μM.

As to `CC(C)(C#Cc1ccc(-c2ccc(Cl)c3c(N(C(=O)C4CN(C(=N)N)C4)S(C)(=O)=O)nn(CC(F)(F)F)c23)c([C@H](Cc2cc(F)cc(F)c2)NC(=O)Cn2nc(C(F)(F)F)c3c2C(F)(F)[C@@H]2C[C@H]32)n1)S(C)(=O)=O` [Compound 6, 1-carbamimidoyl-N-(4-chloro-7-(2-((S)-1-(2-((3bS,4aR)-5,5-difluoro-3-(trifluoromethyl)-3b,4,4a,5-tetrahydro-1H-cyclopropa[3,4]cyclopenta[1,2-c]pyrazol-1-yl)acetamido)-2-(3,5-difluorophenyl)ethyl)-6-(3-methyl-3-(methylsulfonyl)but-1-yn-1-yl)pyridin-3-yl)-1-(2,2,2-trifluoroethyl)-1H-indazol-3-yl)-N-(methylsulfonyl)azetidine-3-carboxamide], in data set [1], the “pH 2 solubility” value amounted to 15 μM and the “pH 7 solubility” value is 9 μM.

On to `CC(C)(C#Cc1ccc(-c2ccc(Cl)c3c(N(C(=O)[C@H]4C[C@H](N)C4)S(C)(=O)=O)nn(CC(F)(F)F)c23)c([C@H](Cc2cc(F)cc(F)c2)NC(=O)Cn2nc(C(F)(F)F)c3c2C(F)(F)[C@@H]2C[C@H]32)n1)S(C)(=O)=O` [Compound 7, (trans)-3-amino-N-(4-chloro-7-(2-((S)-1-(2-((3bS,4aR)-5,5-difluoro-3-(trifluoromethyl)-3b,4,4a,5-tetrahydro-1H-cyclopropa[3,4]cyclopenta[1,2-c]pyrazol-1-yl)acetamido)-2-(3,5-difluorophenyl)ethyl)-6-(3-methyl-3-(methylsulfonyl)but-1-yn-1-yl)pyridin-3-yl)-1-(2,2,2-trifluoroethyl)-1H-indazol-3-yl)-N-(methylsulfonyl)cyclobutane-1-carboxamide], for which, in data set [1], the “pH 2 solubility” value turned out to be 70 μM and the “pH 7 solubility” value is on record as 1 μM.

As for `CC(C)(C#Cc1ccc(-c2ccc(Cl)c3c(N(C(=O)[C@H]4C[C@H](NC(=O)C(=O)O)C4)S(C)(=O)=O)nn(CC(F)(F)F)c23)c([C@H](Cc2cc(F)cc(F)c2)NC(=O)Cn2nc(C(F)(F)F)c3c2C(F)(F)[C@@H]2C[C@H]32)n1)S(C)(=O)=O` [Compound 8], in data set [1], the “pH 2 solubility” value is on record as <1/1 μM and the “pH 7 solubility” value is reported as <1/1 μM.

With `CC(C)(C#Cc1ccc(-c2ccc(Cl)c3c(N(C(=O)[C@H]4C[C@H](NC(=N)N)C4)S(C)(=O)=O)nn(CC(F)(F)F)c23)c([C@H](Cc2cc(F)cc(F)c2)NC(=O)Cn2nc(C(F)(F)F)c3c2C(F)(F)[C@@H]2C[C@H]32)n1)S(C)(=O)=O` [Compound 9, trans-N-(4-chloro-7-(2-((S)-1-(2-((3bS,4aR)-5,5-difluoro-3-(trifluoromethyl)-3b,4,4a,5-tetrahydro-1H-cyclopropa[3,4]cyclopenta[1,2-c]pyrazol-1-yl)acetamido)-2-(3,5-difluorophenyl)ethyl)-6-(3-methyl-3-(methylsulfonyl)but-1-yn-1-yl)pyridin-3-yl)-1-(2,2,2-trifluoroethyl)-1H-indazol-3-yl)-3-guanidino-N-(methylsulfonyl)cyclobutane-1-carboxamide], the solubility is 17 µg/mL (≈ 15.4 µM) in data set [2] (setting [3]) and 83 µg/mL (≈ 74.9 µM) in data set [2] (setting [4]). In addition, the “pH 2 solubility” value in data set [1] turned out to be 9 μM. The “pH 7 solubility” value in data set [1] stood at 2 μM.

In data set [2] (setting [3]), `CC(C)(C#Cc1ccc(-c2ccc(Cl)c3c(N(C(=O)[C@@H]4C[C@@H]4COP(=O)(O)O)S(C)(=O)=O)nn(CC(F)(F)F)c23)c([C@H](Cc2cc(F)cc(F)c2)NC(=O)Cn2nc(C(F)(F)F)c3c2C(F)(F)[C@@H]2C[C@H]32)n1)S(C)(=O)=O` [Compound 11] registered a solubility of 401 µg/mL (≈ 350 µM). In addition, in data set [2] (setting [4]), the solubility was 355 µg/mL (≈ 310 µM). Moreover, in data set [1], the “pH 2 solubility” value is given as 1 μM and the “pH 7 solubility” value turned out to be 61 μM.

Take `CC(C)(C#Cc1ccc(-c2ccc(Cl)c3c(N(C(=O)[C@@H]4C[C@H](C(=O)O)C[C@H](C(=O)O)C4)S(C)(=O)=O)nn(CC(F)(F)F)c23)c([C@H](Cc2cc(F)cc(F)c2)NC(=O)Cn2nc(C(F)(F)F)c3c2C(F)(F)[C@@H]2C[C@H]32)n1)S(C)(=O)=O` [Compound 15, (1R,3S,5r)-5-((4-chloro-7-(2-((S)-1-(2-((3bS,4aR)-5,5-difluoro-3-(trifluoromethyl)-3b,4,4a,5-tetrahydro-1H-cyclopropa[3,4]cyclopenta[1,2-c]pyrazol-1-yl)acetamido)-2-(3,5-difluorophenyl)ethyl)-6-(3-methyl-3-(methylsulfonyl)but-1-yn-1-yl)pyridin-3-yl)-1-(2,2,2-trifluoroethyl)-1H-indazol-3-yl)(methylsulfonyl)carbamoyl)cyclohexane-1,3-dicarboxylic acid]: the solubility was 253 µg/mL (≈ 217 µM) in data set [2] (setting [3]) and 38 µg/mL (≈ 32.6 µM) in data set [2] (setting [4]). Further, the “pH 2 solubility” value in data set [1] was 1/1 μM. In data set [1], the “pH 7 solubility” value is 1/1 μM.

Consider `CC(C)(C#Cc1ccc(-c2ccc(Cl)c3c(N(C(=O)[C@H]4C[C@H]4C(=O)O)S(C)(=O)=O)nn(CC(F)(F)F)c23)c([C@H](Cc2cc(F)cc(F)c2)NC(=O)Cn2nc(C(F)(F)F)c3c2C(F)(F)[C@@H]2C[C@H]32)n1)S(C)(=O)=O` [Compound 17, (1R,2S)-2-((4-chloro-7-(2-((S)-1-(2-((3bS,4aR)-5,5-difluoro-3-(trifluoromethyl)-3b,4,4a,5-tetrahydro-1H-cyclopropa[3,4]cyclopenta[1,2-c]pyrazol-1-yl)acetamido)-2-(3,5-difluorophenyl)ethyl)-6-(3-methyl-3-(methylsulfonyl)but-1-yn-1-yl)pyridin-3-yl)-1-(2,2,2-trifluoroethyl)-1H-indazol-3-yl)(methylsulfonyl)carbamoyl)cyclopropane-1-carboxylic acid], for which, in data set [1], the “pH 2 solubility” value was 3/3 μM and the “pH 7 solubility” value was 3/3 μM.

Take `CC(C)(C#Cc1ccc(-c2ccc(Cl)c3c(N(C(=O)N4CCC(C(=O)O)CC4)S(C)(=O)=O)nn(CC(F)(F)F)c23)c([C@H](Cc2cc(F)cc(F)c2)NC(=O)Cn2nc(C(F)(F)F)c3c2C(F)(F)[C@@H]2C[C@H]32)n1)S(C)(=O)=O` [Compound 25, 1-((4-chloro-7-(2-((S)-1-(2-((3bS,4aR)-5,5-difluoro-3-(trifluoromethyl)-3b,4,4a,5-tetrahydro-1H-cyclopropa[3,4]cyclopenta[1,2-c]pyrazol-1-yl)acetamido)-2-(3,5-difluorophenyl)ethyl)-6-(3-methyl-3-(methylsulfonyl)but-1-yn-1-yl)pyridin-3-yl)-1-(2,2,2-trifluoroethyl)-1H-indazol-3-yl)(methylsulfonyl)carbamoyl)piperidine-4-carboxylic acid]: in data set [1], the “pH 2 solubility” value was determined as 1 μM and the “pH 7 solubility” value amounted to 19 μM.

Regarding `CC(C)(C#Cc1ccc(-c2ccc(Cl)c3c(N(C(=O)N4CCC[C@H]4CN)S(C)(=O)=O)nn(CC(F)(F)F)c23)c([C@H](Cc2cc(F)cc(F)c2)NC(=O)Cn2nc(C(F)(F)F)c3c2C(F)(F)[C@@H]2C[C@H]32)n1)S(C)(=O)=O` [Compound 31, (S)-2-(aminomethyl)-N-(4-chloro-7-(2-((S)-1-(2-((3bS,4aR)-5,5-difluoro-3-(trifluoromethyl)-3b,4,4a,5-tetrahydro-1H-cyclopropa[3,4]cyclopenta[1,2-c]pyrazol-1-yl)acetamido)-2-(3,5-difluorophenyl)ethyl)-6-(3-methyl-3-(methylsulfonyl)but-1-yn-1-yl)pyridin-3-yl)-1-(2,2,2-trifluoroethyl)-1H-indazol-3-yl)-N-(methylsulfonyl)pyrrolidine-1-carboxamide], in data set [1], the “pH 2 solubility” value is reported as 61 μM and the “pH 7 solubility” value is on record as 14 μM.

For orientation: solubility means the dissolved amount per volume that the medium holds. High values mean much dissolved substance, low ones little dissolved substance.

Values taken from patent publication US12084467B2, “Therapeutic compounds for HIV virus infection” (Gilead Sciences, Inc., priority 2021, dated 2024).
